Legend:
Test in all cases: KinaseProfiler off-target kinase profiling
Format in all cases: biochemical
Conditions in all cases: 10 μM, ATP near Km
mTOR = mTOR (Homo sapiens (Human), UniProt P42345)
How it was run: (§1)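 ATP was held near each kinase's Km while compound was present at 10 μM. Runs were done twice, and values are the average percent of control.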

Flt3 = Flt3 (Homo sapiens (Human), UniProt P36888)
How it was run: as §1

Fes = Fes (Homo sapiens (Human), UniProt P07332)
How it was run: as §1

IRR = IRR (Homo sapiens (Human), UniProt P14616)
How it was run: as §1

AKT3 = AKT3 (Homo sapiens (Human), UniProt Q9Y243)
How it was run: as §1

MARK2 = MARK2 (Homo sapiens (Human), UniProt Q7KZI7)
How it was run: as §1

HIPK1 = HIPK1 (Homo sapiens (Human), UniProt Q86Z02)
How it was run: as §1

EGFR = EGFR (Homo sapiens (Human), UniProt P00533)
How it was run: as §1

DYRK2 = DYRK2 (Homo sapiens (Human), UniProt Q92630)
How it was run: as §1

HIPK3 = HIPK3 (Homo sapiens (Human), UniProt Q9H422)
How it was run: as §1

PAK4 = PAK4 (Homo sapiens (Human), UniProt O96013)
How it was run: as §1

MAP3K5 = MAP3K5 (Homo sapiens (Human), UniProt Q99683)
How it was run: as §1

IRAK4 = IRAK4 (Homo sapiens (Human), UniProt Q9NWZ3)
How it was run: as §1

TNK2 = TNK2 (Homo sapiens (Human), UniProt Q07912)
How it was run: as §1

ROCK-II = ROCK-II (Homo sapiens (Human), UniProt O75116)
How it was run: as §1

PKD1 = PKD1 (Homo sapiens (Human), UniProt Q15139)
How it was run: as §1

Ron = Ron (Homo sapiens (Human), UniProt Q04912)
How it was run: as §1

ARK5 = ARK5 (Homo sapiens (Human), UniProt O60285)
How it was run: as §1

PKCbetaI = PKCbetaI (Homo sapiens (Human), UniProt P05771)
How it was run: as §1

DAPK3 = DAPK3 (Homo sapiens (Human), UniProt O43293)
How it was run: as §1

TrkA = TrkA (Homo sapiens (Human), UniProt P04629)
How it was run: as §1

CK1gamma3 = CK1gamma3 (Homo sapiens (Human), UniProt Q9Y6M4)
How it was run: as §1

FGFR2 = FGFR2 (Homo sapiens (Human), UniProt P21802)
How it was run: as §1

PAK6 = PAK6 (Homo sapiens (Human), UniProt Q9NQU5)
How it was run: as §1

Ros = Ros (Homo sapiens (Human), UniProt P08922)
How it was run: as §1

IKKbeta = IKKbeta (Homo sapiens (Human), UniProt O14920)
How it was run: as §1

EphA7 = EphA7 (Homo sapiens (Human), UniProt Q15375)
How it was run: as §1

NEK3 = NEK3 (Homo sapiens (Human), UniProt P51956)
How it was run: as §1

CK2alpha2 = CK2alpha2 (Homo sapiens (Human), UniProt P19784)
How it was run: as §1

Flt4 = Flt4 (Homo sapiens (Human), UniProt P35916)
How it was run: as §1

p70S6K = p70S6K (Homo sapiens (Human), UniProt P23443)
How it was run: as §1

EphB1 = EphB1 (Homo sapiens (Human), UniProt P54762)
How it was run: as §1

EphA4 = EphA4 (Homo sapiens (Human), UniProt P54764)
How it was run: as §1

CAMK1d = CAMK1d (Homo sapiens (Human), UniProt Q8IU85)
How it was run: as §1

MLK1 = MLK1 (Homo sapiens (Human), UniProt P80192)
How it was run: as §1

TAK1 = TAK1 (Homo sapiens (Human), UniProt O43318)
How it was run: as §1

Lyn = Lyn (Homo sapiens (Human), UniProt P07948)
How it was run: as §1

Rsk2 = Rsk2 (Homo sapiens (Human), UniProt P51812)
How it was run: as §1

SRPK1 = SRPK1 (Homo sapiens (Human), UniProt Q96SB4)
How it was run: as §1

Chain of Flt3 (P36888 27-993): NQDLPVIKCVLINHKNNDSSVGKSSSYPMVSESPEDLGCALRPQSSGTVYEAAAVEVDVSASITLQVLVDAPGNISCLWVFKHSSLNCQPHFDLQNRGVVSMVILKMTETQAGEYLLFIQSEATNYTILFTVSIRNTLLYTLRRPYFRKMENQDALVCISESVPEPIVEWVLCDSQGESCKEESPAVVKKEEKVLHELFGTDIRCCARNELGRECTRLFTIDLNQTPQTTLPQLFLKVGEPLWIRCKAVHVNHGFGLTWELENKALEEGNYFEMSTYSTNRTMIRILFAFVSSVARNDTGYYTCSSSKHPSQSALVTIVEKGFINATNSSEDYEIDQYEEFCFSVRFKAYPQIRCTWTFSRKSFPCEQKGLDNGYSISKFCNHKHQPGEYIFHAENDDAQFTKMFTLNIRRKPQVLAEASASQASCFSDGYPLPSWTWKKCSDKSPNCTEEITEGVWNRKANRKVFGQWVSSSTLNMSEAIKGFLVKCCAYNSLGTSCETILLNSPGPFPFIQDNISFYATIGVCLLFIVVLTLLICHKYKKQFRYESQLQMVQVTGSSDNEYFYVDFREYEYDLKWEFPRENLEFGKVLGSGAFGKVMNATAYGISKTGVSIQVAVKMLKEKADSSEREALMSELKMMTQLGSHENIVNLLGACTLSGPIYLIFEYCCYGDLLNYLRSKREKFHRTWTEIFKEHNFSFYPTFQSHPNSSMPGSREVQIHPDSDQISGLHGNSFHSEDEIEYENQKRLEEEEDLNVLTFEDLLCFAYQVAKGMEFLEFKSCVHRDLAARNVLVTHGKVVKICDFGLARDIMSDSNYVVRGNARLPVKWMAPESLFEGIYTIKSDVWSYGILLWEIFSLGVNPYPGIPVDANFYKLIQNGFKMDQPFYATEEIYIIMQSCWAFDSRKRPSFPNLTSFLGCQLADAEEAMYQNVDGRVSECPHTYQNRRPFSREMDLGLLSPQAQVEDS
Chain of PKCbetaI (P05771 whole entry): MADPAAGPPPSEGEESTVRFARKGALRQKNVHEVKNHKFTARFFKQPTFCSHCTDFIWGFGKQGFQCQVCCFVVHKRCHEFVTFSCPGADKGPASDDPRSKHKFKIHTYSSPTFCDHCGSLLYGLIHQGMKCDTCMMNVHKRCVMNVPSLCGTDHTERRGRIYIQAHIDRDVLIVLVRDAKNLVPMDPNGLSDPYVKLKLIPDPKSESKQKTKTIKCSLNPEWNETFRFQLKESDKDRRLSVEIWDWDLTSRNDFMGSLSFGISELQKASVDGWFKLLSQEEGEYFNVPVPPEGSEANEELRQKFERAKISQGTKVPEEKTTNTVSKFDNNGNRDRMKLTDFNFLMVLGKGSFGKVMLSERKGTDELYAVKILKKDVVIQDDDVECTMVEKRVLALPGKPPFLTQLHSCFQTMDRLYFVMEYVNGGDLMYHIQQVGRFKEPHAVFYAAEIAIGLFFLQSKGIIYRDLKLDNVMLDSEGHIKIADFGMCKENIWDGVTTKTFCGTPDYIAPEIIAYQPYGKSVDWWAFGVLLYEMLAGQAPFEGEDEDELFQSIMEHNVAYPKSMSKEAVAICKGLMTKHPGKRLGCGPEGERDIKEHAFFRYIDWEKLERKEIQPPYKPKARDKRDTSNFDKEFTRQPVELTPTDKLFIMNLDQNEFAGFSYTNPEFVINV
Chain of HIPK3 (Q9H422 whole entry): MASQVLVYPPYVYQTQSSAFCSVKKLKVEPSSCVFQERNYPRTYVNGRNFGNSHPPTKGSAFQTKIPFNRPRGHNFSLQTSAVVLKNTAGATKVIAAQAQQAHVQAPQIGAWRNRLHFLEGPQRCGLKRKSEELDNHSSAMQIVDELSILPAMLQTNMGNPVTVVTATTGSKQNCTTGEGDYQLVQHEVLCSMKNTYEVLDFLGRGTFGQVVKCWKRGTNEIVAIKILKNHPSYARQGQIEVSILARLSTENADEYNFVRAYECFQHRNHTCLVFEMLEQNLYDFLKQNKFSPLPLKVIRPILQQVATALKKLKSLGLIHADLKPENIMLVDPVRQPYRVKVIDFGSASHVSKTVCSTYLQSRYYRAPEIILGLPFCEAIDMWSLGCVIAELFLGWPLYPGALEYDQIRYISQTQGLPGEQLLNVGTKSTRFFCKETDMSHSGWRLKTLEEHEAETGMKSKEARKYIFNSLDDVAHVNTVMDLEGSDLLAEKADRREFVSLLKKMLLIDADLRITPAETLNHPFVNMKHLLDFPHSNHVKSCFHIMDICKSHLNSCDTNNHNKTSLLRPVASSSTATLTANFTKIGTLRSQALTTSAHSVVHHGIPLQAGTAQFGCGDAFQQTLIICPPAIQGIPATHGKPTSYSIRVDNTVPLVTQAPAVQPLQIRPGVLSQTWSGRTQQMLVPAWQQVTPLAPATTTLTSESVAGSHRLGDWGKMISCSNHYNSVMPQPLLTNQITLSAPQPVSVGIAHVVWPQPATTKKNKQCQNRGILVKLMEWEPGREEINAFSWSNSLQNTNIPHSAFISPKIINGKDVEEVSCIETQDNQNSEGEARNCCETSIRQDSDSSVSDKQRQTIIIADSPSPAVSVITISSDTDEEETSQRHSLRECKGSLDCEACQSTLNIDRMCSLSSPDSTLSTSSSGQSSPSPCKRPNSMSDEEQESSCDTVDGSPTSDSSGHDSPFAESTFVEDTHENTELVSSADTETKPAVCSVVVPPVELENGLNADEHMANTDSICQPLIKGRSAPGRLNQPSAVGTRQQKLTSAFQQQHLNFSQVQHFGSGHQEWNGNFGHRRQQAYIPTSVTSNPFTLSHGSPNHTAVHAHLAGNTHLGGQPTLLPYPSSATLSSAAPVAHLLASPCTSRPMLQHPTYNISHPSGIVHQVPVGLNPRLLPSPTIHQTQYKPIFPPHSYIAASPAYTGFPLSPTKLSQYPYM
Chain of DYRK2 (Q92630 whole entry): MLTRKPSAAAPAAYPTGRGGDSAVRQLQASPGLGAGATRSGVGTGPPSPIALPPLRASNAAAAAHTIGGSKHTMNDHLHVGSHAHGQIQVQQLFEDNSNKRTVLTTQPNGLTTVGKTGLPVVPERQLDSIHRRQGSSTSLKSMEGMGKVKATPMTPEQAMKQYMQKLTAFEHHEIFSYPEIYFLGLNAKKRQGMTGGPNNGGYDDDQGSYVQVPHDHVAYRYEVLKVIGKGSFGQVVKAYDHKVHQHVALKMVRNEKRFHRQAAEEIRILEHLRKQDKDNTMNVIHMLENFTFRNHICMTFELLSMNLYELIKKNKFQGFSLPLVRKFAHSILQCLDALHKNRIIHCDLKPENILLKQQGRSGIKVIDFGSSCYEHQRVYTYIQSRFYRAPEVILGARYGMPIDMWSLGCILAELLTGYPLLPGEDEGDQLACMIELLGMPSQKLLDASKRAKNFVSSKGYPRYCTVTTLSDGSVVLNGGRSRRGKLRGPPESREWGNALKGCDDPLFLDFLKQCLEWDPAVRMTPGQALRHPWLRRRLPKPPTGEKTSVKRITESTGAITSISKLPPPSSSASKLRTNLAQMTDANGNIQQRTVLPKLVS
Chain of EGFR (P00533 25-1210): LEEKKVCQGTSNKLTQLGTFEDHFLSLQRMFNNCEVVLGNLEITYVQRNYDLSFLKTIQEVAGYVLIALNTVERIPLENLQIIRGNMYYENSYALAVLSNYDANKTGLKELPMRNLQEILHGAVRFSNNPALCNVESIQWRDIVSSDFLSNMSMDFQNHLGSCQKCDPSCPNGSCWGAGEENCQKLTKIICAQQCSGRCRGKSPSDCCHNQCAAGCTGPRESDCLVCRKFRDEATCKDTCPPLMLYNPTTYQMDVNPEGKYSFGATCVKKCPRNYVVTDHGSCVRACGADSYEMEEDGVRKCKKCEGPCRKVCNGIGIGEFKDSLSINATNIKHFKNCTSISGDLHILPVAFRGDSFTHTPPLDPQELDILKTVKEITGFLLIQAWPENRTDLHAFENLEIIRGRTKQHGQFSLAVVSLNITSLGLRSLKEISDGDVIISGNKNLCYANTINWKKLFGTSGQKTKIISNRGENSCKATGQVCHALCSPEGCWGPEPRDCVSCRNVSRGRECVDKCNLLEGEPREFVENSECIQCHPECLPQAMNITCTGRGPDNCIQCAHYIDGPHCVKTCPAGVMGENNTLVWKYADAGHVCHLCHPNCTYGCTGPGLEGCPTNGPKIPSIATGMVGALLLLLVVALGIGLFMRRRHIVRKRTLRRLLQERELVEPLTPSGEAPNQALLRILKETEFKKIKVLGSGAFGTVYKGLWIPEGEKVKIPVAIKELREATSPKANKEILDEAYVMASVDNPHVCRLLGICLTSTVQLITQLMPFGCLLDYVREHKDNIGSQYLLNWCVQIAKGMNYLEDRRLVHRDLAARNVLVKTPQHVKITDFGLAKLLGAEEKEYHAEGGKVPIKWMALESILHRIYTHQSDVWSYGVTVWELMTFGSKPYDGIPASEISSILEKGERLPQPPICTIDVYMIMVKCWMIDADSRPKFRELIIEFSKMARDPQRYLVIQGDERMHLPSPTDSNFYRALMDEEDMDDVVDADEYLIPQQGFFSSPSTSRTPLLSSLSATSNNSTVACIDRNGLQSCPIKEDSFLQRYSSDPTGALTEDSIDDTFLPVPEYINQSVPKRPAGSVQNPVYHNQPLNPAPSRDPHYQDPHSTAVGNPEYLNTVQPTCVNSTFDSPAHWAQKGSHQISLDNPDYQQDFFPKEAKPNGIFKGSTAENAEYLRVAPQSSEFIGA
Chain of CAMK1d (Q8IU85 whole entry): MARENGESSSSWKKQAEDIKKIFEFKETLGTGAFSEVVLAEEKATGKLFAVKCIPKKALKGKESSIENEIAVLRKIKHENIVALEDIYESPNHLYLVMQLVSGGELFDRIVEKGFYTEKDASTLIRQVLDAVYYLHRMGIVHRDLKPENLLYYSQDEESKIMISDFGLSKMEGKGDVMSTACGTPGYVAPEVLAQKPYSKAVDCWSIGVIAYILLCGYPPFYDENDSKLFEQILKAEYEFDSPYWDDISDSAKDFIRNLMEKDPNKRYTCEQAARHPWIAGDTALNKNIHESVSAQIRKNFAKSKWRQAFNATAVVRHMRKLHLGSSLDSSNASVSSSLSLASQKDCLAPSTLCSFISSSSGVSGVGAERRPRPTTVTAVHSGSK

Avg. POC (mTOR)	Avg. POC (Flt3)	Avg. POC (Fes)	Avg. POC (IRR)	Avg. POC (AKT3)	Avg. POC (MARK2)	Avg. POC (HIPK1)	Avg. POC (EGFR)	Avg. POC (DYRK2)	Avg. POC (HIPK3)	Avg. POC (PAK4)	Avg. POC (MAP3K5)	Avg. POC (IRAK4)	Avg. POC (TNK2)	Avg. POC (ROCK-II)	Avg. POC (PKD1)	Avg. POC (Ron)	Avg. POC (ARK5)	Avg. POC (PKCbetaI)	Avg. POC (DAPK3)	SMILES	other results
116 POC	96.5 POC	129.5 POC	2.5 POC	116.5 POC	109 POC	97 POC	114 POC	98 POC	119.5 POC	95 POC	105 POC	125.5 POC	100.5 POC	108 POC	110.5 POC	106.5 POC	109.5 POC	99 POC	125.5 POC	Cc1c(-c2cnn(C)c2)nn(-c2ccccc2)c1NC(=O)N[C@H]1CCCc2ccccc21 [Example 2, (S)-1-(1′,4-dimethyl-1-phenyl-1H,1′H-3,4′-bipyrazol-5-yl)-3-(1,2,3,4-tetrahydronaphthalen-1-yl)urea]	Avg. POC (TrkA): 1.5 POC; Avg. POC (CK1gamma3): 118 POC; Avg. POC (FGFR2): 112.5 POC; Avg. POC (PAK6): 119.5 POC; Avg. POC (Ros): 106.5 POC; Avg. POC (IKKbeta): 116 POC; Avg. POC (EphA7): 116 POC; Avg. POC (NEK3): 105 POC; Avg. POC (CK2alpha2): 125 POC; Avg. POC (Flt4): 99 POC; Avg. POC (p70S6K): 172 POC; Avg. POC (EphB1): 108.5 POC; Avg. POC (EphA4): 111.5 POC; Avg. POC (CAMK1d): 127 POC; Avg. POC (MLK1): 75 POC; Avg. POC (TAK1): 106 POC; Avg. POC (Lyn): 115 POC; Avg. POC (Rsk2): 137 POC; Avg. POC (SRPK1): 122 POC
104.5 POC	90 POC	110 POC	91 POC	94 POC	105.5 POC	102.5 POC	109.5 POC	97.5 POC	102.5 POC	103 POC	111 POC	95.5 POC	117.5 POC	99 POC	115 POC	116.5 POC	99.5 POC	93.5 POC	103 POC	Cc1c(-c2cnn(C)c2)nn(-c2ccccc2)c1NC(=O)NC1CCOc2cc(F)ccc21 (stereo not drawn) [Example 12, 1-(1′,4-dimethyl-1-phenyl-1H,1′H-[3,4′-bipyrazol]-5-yl)-3-(7-fluorochroman-4-yl)urea]	Avg. POC (TrkA): −0.5 POC; Avg. POC (CK1gamma3): 104.5 POC; Avg. POC (FGFR2): 114 POC; Avg. POC (PAK6): 139 POC; Avg. POC (Ros): 97.5 POC; Avg. POC (IKKbeta): 102 POC; Avg. POC (EphA7): 96.5 POC; Avg. POC (NEK3): 102 POC; Avg. POC (CK2alpha2): 107.5 POC; Avg. POC (Flt4): 83.5 POC; Avg. POC (p70S6K): 124.5 POC; Avg. POC (EphB1): 114 POC; Avg. POC (EphA4): 114.5 POC; Avg. POC (CAMK1d): 137 POC; Avg. POC (MLK1): 103.5 POC; Avg. POC (TAK1): 97 POC; Avg. POC (Lyn): 104.5 POC; Avg. POC (Rsk2): 103 POC; Avg. POC (SRPK1): 97.5 POC
102.5 POC	97.5 POC	100.5 POC	89 POC	96 POC	102.5 POC	111 POC	108 POC	103 POC	111 POC	100.5 POC	116.5 POC	102 POC	123 POC	110 POC	113.5 POC	101 POC	100.5 POC	89 POC	103 POC	Cc1c(-c2ccc(=O)n(C)c2)nn(-c2ccccc2)c1NC(=O)NC1CN(CC(F)(F)F)Cc2ccccc21 (stereo not drawn) [Example 26, 1-(4-methyl-3-(1-methyl-6-oxo-1,6-dihydropyridin-3-yl)-1-phenyl-1H-pyrazol-5-yl)-3-(2-(2,2,2-trifluoroethyl)-1,2,3,4-tetrahydroisoquinolin-4-yl)urea]	Avg. POC (TrkA): 0.5 POC; Avg. POC (CK1gamma3): 102.5 POC; Avg. POC (FGFR2): 112 POC; Avg. POC (PAK6): 116.5 POC; Avg. POC (Ros): 106.5 POC; Avg. POC (IKKbeta): 103.5 POC; Avg. POC (EphA7): 108 POC; Avg. POC (NEK3): 105 POC; Avg. POC (CK2alpha2): 114 POC; Avg. POC (Flt4): 106 POC; Avg. POC (p70S6K): 116 POC; Avg. POC (EphB1): 116.5 POC; Avg. POC (EphA4): 110 POC; Avg. POC (CAMK1d): 97 POC; Avg. POC (MLK1): 105.5 POC; Avg. POC (TAK1): 108.5 POC; Avg. POC (Lyn): 110.5 POC; Avg. POC (Rsk2): 105.5 POC; Avg. POC (SRPK1): 102.5 POC
94.5 POC	115 POC	112.5 POC	109.5 POC	77.5 POC	107.5 POC	115 POC	102 POC	97.5 POC	107 POC	98 POC	116 POC	99 POC	132 POC	106 POC	98.5 POC	107 POC	118.5 POC	80 POC	111 POC	COCc1ccc2c(c1)C(NC(=O)Nc1c(C)c(-c3cnn(C)c3)nn1-c1ccccc1)COC2 (stereo not drawn) [Example 32, 1-(1′,4-dimethyl-1-phenyl-1H,1′H-[3,4′-bipyrazol]-5-yl)-3-(6-(methoxymethyl)isochroman-4-yl)urea]	Avg. POC (TrkA): 0 POC; Avg. POC (CK1gamma3): 102 POC; Avg. POC (FGFR2): 110.5 POC; Avg. POC (PAK6): 116.5 POC; Avg. POC (Ros): 97.5 POC; Avg. POC (IKKbeta): 105.5 POC; Avg. POC (EphA7): 100.5 POC; Avg. POC (NEK3): 113 POC; Avg. POC (CK2alpha2): 104 POC; Avg. POC (Flt4): 98 POC; Avg. POC (p70S6K): 110.5 POC; Avg. POC (EphB1): 145.5 POC; Avg. POC (EphA4): 103 POC; Avg. POC (CAMK1d): 114 POC; Avg. POC (MLK1): 104.5 POC; Avg. POC (TAK1): 99.5 POC; Avg. POC (Lyn): 106.5 POC; Avg. POC (Rsk2): 92.5 POC; Avg. POC (SRPK1): 99.5 POC

From US10351575B2, “Bicyclic urea, thiourea, guanidine and cyanoguanidine compounds useful for the treatment of pain” (Array BioPharma Inc., priority 2012, dated 2019)
